Laboratory results: patent US10570121B2, “Substituted dihydroisoquinolinone compounds” (priority 2014, dated 2020)

Columns and labels:
EZH2 Mutant Y641N = EZH2 Mutant Y641N (Homo sapiens (Human), UniProt Q15910, Y641N); assay: EZH2 Mutant Y641N nucleosome assay; format: biochemical; conditions: PRC2 4-protein complex 6 nM, 1.5 μM SAM, HeLa oligonucleosomes; read-out: EZH2 Mutant Y641N Nucleosome assay IC50
WT EZH2 = WT EZH2 (Homo sapiens (Human), UniProt Q15910); assay: WT EZH2 nucleosome assay (10X SAM, high SAM conditions); format: biochemical; conditions: 15 uM SAM, Ki app from competitive inhibition fit, read-out: WT EZH2 Nucleosome assay (10X SAM) Ki
Sequence of WT EZH2 (Q15910 whole entry, looked up): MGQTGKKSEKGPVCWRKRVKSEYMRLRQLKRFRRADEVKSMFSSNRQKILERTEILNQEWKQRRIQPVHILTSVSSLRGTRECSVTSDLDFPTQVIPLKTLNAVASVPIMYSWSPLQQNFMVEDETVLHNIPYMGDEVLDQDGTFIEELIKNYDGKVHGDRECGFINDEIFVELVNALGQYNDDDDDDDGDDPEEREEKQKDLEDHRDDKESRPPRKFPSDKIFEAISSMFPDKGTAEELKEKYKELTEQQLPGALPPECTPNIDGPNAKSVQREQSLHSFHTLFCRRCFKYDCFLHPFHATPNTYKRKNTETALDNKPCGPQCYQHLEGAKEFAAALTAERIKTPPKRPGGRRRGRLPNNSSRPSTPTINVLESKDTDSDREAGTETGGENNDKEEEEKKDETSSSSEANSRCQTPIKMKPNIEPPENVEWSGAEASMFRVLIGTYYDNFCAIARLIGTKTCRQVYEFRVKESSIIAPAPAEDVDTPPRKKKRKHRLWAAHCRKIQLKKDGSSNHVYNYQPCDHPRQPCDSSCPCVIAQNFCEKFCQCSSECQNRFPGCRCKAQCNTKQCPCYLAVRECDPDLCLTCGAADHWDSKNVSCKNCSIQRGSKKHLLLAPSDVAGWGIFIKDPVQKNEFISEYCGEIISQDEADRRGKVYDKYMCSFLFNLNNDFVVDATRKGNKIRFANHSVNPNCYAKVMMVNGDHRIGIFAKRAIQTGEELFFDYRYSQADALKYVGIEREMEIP
Sequence of WT EZH2 (O75530 whole entry partner, looked up): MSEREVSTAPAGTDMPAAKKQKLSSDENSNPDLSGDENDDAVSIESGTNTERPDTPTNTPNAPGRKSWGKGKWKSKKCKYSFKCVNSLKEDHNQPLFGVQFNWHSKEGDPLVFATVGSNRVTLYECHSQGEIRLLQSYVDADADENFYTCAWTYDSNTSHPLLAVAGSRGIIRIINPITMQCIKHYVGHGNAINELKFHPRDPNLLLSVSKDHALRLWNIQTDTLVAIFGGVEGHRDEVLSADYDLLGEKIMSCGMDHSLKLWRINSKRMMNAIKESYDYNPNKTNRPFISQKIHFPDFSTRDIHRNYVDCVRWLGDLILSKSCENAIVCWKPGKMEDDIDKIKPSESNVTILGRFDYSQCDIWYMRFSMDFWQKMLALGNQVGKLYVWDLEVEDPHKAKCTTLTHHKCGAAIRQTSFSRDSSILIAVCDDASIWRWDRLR
Sequence of WT EZH2 (Q15022 whole entry partner, looked up): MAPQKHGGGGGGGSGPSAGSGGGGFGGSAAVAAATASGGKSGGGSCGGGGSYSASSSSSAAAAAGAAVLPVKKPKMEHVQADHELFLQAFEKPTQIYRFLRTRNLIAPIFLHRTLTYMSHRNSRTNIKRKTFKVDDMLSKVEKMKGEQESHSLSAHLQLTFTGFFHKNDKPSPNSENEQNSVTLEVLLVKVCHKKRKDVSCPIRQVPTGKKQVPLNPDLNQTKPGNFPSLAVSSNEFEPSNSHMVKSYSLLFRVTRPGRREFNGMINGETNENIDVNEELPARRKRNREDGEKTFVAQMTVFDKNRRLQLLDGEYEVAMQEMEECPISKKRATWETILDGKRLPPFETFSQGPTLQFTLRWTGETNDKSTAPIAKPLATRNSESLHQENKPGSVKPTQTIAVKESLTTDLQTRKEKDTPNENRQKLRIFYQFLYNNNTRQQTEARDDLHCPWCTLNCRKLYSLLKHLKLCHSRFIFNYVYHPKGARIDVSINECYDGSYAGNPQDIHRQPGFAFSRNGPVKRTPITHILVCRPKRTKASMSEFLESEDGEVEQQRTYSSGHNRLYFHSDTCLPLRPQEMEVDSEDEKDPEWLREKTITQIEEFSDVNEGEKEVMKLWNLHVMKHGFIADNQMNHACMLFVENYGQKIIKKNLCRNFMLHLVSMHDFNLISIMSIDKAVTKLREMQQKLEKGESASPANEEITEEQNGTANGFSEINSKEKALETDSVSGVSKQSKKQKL
Sequence of WT EZH2 (Q09028 whole entry partner, looked up): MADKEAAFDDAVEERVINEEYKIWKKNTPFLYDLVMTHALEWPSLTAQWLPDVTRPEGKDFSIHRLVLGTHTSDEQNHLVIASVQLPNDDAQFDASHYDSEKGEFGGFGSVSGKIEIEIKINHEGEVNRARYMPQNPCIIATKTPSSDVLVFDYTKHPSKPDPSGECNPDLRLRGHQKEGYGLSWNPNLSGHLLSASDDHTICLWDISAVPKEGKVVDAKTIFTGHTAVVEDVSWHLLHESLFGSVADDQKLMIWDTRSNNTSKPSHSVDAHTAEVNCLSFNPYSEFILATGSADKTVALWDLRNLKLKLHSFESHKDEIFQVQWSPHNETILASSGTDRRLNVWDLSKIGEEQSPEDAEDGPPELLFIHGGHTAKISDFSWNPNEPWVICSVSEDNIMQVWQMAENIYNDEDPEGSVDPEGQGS

Sequence of EZH2 Mutant Y641N (Q15910 whole entry Y641N, looked up): as the sequence (Q15910 whole entry, looked up) above, with Y641N counted along it
Sequence of EZH2 Mutant Y641N (O75530 whole entry partner, looked up): as the sequence (O75530 whole entry partner, looked up) above
Sequence of EZH2 Mutant Y641N (Q15022 whole entry partner, looked up): as the sequence (Q15022 whole entry partner, looked up) above
Sequence of EZH2 Mutant Y641N (Q09028 whole entry partner, looked up): as the sequence (Q09028 whole entry partner, looked up) above

Row | IC50 (EZH2 Mutant Y641N) | Ki (WT EZH2) | SMILES
1 | 5 nM | 0.3 nM | COC(c1cc(Cl)c2c(c1Cl)C(=O)N(Cc1c(C)cc(C)[nH]c1=O)CC2)C1CN(S(C)(=O)=O)C1 (single isomer, unassigned) [Example 176]
2 | 282 nM | 49 nM | COC(c1cc(Cl)c2c(c1Cl)C(=O)N(Cc1c(C)cc(C)[nH]c1=O)CC2)C1CN(S(C)(=O)=O)C1 (single isomer, unassigned) [Example 177]
3 | 9 nM | 1 nM | COC(c1cc(Cl)c2c(c1Cl)C(=O)N(Cc1c(C)cc(C)[nH]c1=O)CC2)C1CC(=O)N(C)C1 (single isomer, unassigned) [Example 179]
4 | 2160 nM | 390 nM | COC(c1cc(Cl)c2c(c1Cl)C(=O)N(Cc1c(C)cc(C)[nH]c1=O)CC2)C1CC(=O)N(C)C1 (single isomer, unassigned) [Example 180]
5 | 41 nM | 1 nM | COC(c1cc(C)c2c(c1Cl)C(=O)N(Cc1c(C)cc(C)[nH]c1=O)CC2)C1CN(C2COC2)C1 (single isomer, unassigned) [Example 181]
6 | 9150 nM | 2230 nM | COC(c1cc(C)c2c(c1Cl)C(=O)N(Cc1c(C)cc(C)[nH]c1=O)CC2)C1CN(C2COC2)C1 (single isomer, unassigned) [Example 182]
7 | 517 nM | 56 nM | Cc1cc(C)c(CN2CCc3c(Cl)cc(C(C)C4CN(C(=O)CO)C4)c(Cl)c3C2=O)c(=O)[nH]1 (single isomer, unassigned) [Example 183]
8 | 5 nM | 0.6 nM | Cc1cc(C)c(CN2CCc3c(Cl)cc(C(C)C4CN(C(=O)CO)C4)c(Cl)c3C2=O)c(=O)[nH]1 (single isomer, unassigned) [Example 184]
9 | 12 nM | 1 nM | Cc1cc(C)c(CN2CCc3c(Cl)cc(C(C)C4CN(S(C)(=O)=O)C4)c(Cl)c3C2=O)c(=O)[nH]1 (single isomer, unassigned) [Example 185]
10 | 240 nM | 14 nM | Cc1cc(C)c(CN2CCc3c(Cl)cc(C(C)C4CN(S(C)(=O)=O)C4)c(Cl)c3C2=O)c(=O)[nH]1 (single isomer, unassigned) [Example 186]
11 | 10 nM | 1 nM | Cc1cc(C)c(CN2CCc3c(Cl)cc(C(C)C4CN(C)C4)c(Cl)c3C2=O)c(=O)[nH]1 (single isomer, unassigned) [Example 187]
12 | 151 nM | 14 nM | Cc1cc(C)c(CN2CCc3c(Cl)cc(C(C)C4CN(C)C4)c(Cl)c3C2=O)c(=O)[nH]1 (single isomer, unassigned) [Example 188]
13 | 6 nM | 0.7 nM | Cc1cc(C)c(CN2CCc3c(Cl)cc(C(C)C4CNC4)c(Cl)c3C2=O)c(=O)[nH]1 (single isomer, unassigned) [Example 189]
14 | 100 nM | 16 nM | Cc1cc(C)c(CN2CCc3c(Cl)cc(C(C)C4CNC4)c(Cl)c3C2=O)c(=O)[nH]1 (single isomer, unassigned) [Example 190]
15 | 5 nM | 0.3 nM | COc1cc(C)[nH]c(=O)c1CN1CCc2c(C)cc(C(C)C3CN(S(C)(=O)=O)C3)c(Cl)c2C1=O (single isomer, unassigned) [Example 191]
16 | 605 nM | 117 nM | COc1cc(C)[nH]c(=O)c1CN1CCc2c(C)cc(C(C)C3CN(S(C)(=O)=O)C3)c(Cl)c2C1=O (single isomer, unassigned) [Example 192]
17 | 10 nM | 1 nM | Cc1cc(C)c(CN2CCc3c(C)cc(C(C)C4CN(S(C)(=O)=O)C4)c(Cl)c3C2=O)c(=O)[nH]1 (single isomer, unassigned) [Example 193]
18 | 309 nM | 44 nM | Cc1cc(C)c(CN2CCc3c(C)cc(C(C)C4CN(S(C)(=O)=O)C4)c(Cl)c3C2=O)c(=O)[nH]1 (single isomer, unassigned) [Example 194]
19 | 216 nM | 46 nM | Cc1cc(C)c(CN2CCc3c(C)cc(C(C)C4COC4)c(Cl)c3C2=O)c(=O)[nH]1 (single isomer, unassigned) [Example 195]
20 | 3 nM | 0.2 nM | Cc1cc(C)c(CN2CCc3c(C)cc(C(C)C4COC4)c(Cl)c3C2=O)c(=O)[nH]1 (single isomer, unassigned) [Example 196]
21 | 62 nM | 33 nM | COc1cc(C)[nH]c(=O)c1CN1CCc2c(C)cc(C(C)C3COC3)c(Cl)c2C1=O (single isomer, unassigned) [Example 197]
22 | 1 nM | 0.01 nM | COc1cc(C)[nH]c(=O)c1CN1CCc2c(C)cc(C(C)C3COC3)c(Cl)c2C1=O (single isomer, unassigned) [Example 198]
23 | 2 nM | 0.1 nM | COc1cc(C)[nH]c(=O)c1CN1CCc2c(Cl)cc(C(C)C3CCN(C(=O)CO)CC3)c(Cl)c2C1=O (single isomer, unassigned) [Example 200]
24 | 37 nM | 7 nM | COc1cc(C)[nH]c(=O)c1CN1CCc2c(Cl)cc(C(C)C3CCN(C(=O)CO)CC3)c(Cl)c2C1=O (single isomer, unassigned) [Example 201]
25 | 204 nM | 55 nM | COc1cc(C)[nH]c(=O)c1CN1CCc2c(Cl)cc(C(C3COC3)N(C)C)c(Cl)c2C1=O (single isomer, unassigned) [Example 203]
26 | 62 nM | 2 nM | COc1cc(C)[nH]c(=O)c1CN1CCc2c(Cl)cc(C(C3COC3)N(C)C)c(Cl)c2C1=O (single isomer, unassigned) [Example 204]
27 | 5020 nM | 652 nM | Cc1cc(C)c(CN2CCc3c(Cl)cc(C(F)C4CCN(C(=O)CO)CC4)c(Cl)c3C2=O)c(=O)[nH]1 (single isomer, unassigned; (+)) [Example 8, (+)-5,8-dichloro-2-[(4,6-dimethyl-2-oxo-1,2-dihydropyridin-3-yl)methyl]-7-{fluoro[1-(hydroxyacetyl)piperidin-4-yl]methyl}-3,4-dihydroisoquinolin-1(2H)-one]
28 | 35 nM | 5 nM | Cc1cc(C)c(CN2CCc3c(Cl)cc(C(F)C4CCN(C(=O)CO)CC4)c(Cl)c3C2=O)c(=O)[nH]1 (single isomer, unassigned; (-)) [Example 9, (−)-5,8-dichloro-2-[(4,6-dimethyl-2-oxo-1,2-dihydropyridin-3-yl)methyl]-7-{fluoro[1-(hydroxyacetyl)piperidin-4-yl]methyl}-3,4-dihydroisoquinolin-1(2H)-one]

Row | SMILES | IC50 (EZH2 Mutant Y641N) | Ki (WT EZH2)
29 | Cc1cc(C)c(CN2CCc3c(Cl)cc(C(C)N4CCOCC4)c(Cl)c3C2=O)c(=O)[nH]1 (single isomer, unassigned; (+)) [Example 90, (+)-5,8-dichloro-2-[(4,6-dimethyl-2-oxo-1,2-dihydropyridin-3-yl)methyl]-7-[1-(morpholin-4-yl)ethyl]-3,4-dihydroisoquinolin-1(2H)-one] | 5630 nM | 459 nM
30 | Cc1cc(C)c(CN2CCc3c(Cl)cc(C(C)N4CCOCC4)c(Cl)c3C2=O)c(=O)[nH]1 (single isomer, unassigned; (-)) [Example 91, (−)-5,8-dichloro-2-[(4,6-dimethyl-2-oxo-1,2-dihydropyridin-3-yl)methyl]-7-[1-(morpholin-4-yl)ethyl]-3,4-dihydroisoquinolin-1(2H)-one] | 23 nM | 1 nM
31 | Cc1cc(C)c(CN2CCc3c(Cl)cc(C(CO)N4CC[C@@H](F)C4)c(Cl)c3C2=O)c(=O)[nH]1 (stereo partly drawn) [Example 5, 5,8-dichloro-2-[(4,6-dimethyl-2-oxo-1,2-dihydropyridin-3-yl)methyl]-7-{1-[(3R)-3-fluoropyrrolidin-1-yl]-2-hydroxyethyl}-3,4-dihydroisoquinolin-1(2H)-one] | 189 nM | 33 nM
32 | Cc1cc(C)c(CN2CCc3c(Cl)cc([C@H](CO)[C@@H]4CCCO4)c(Cl)c3C2=O)c(=O)[nH]1 [Example 12, 5,8-dichloro-2-[(4,6-dimethyl-2-oxo-1,2-dihydropyridin-3-yl)methyl]-7-{(1R)-2-hydroxy-1-[(2S)-tetrahydrofuran-2-yl]ethyl}-3,4-dihydroisoquinolin-1(2H)-one] | 16 nM | 4 nM
33 | Cc1cc(C)c(CN2CCc3c(Cl)cc([C@H](CO)[C@H]4CCCO4)c(Cl)c3C2=O)c(=O)[nH]1 [Example 13, 5,8-dichloro-2-[(4,6-dimethyl-2-oxo-1,2-dihydropyridin-3-yl)methyl]-7-{(1R)-2-hydroxy-1-[(2R)-tetrahydrofuran-2-yl]ethyl}-3,4-dihydroisoquinolin-1(2H)-one] | 18 nM | 3 nM
34 | Cc1cc(C)c(CN2CCc3c(Cl)cc([C@@H](CO)[C@H]4CCCO4)c(Cl)c3C2=O)c(=O)[nH]1 [Example 45] | 345 nM | 103 nM
35 | Cc1cc(C)c(CN2CCc3c(Cl)cc([C@@H](CO)[C@@H]4CCCO4)c(Cl)c3C2=O)c(=O)[nH]1 [Example 46] | 423 nM | 121 nM
36 | Cc1cc(C)c(CN2CCc3c(Cl)cc(C(CO)N4CC[C@H](F)C4)c(Cl)c3C2=O)c(=O)[nH]1 (some centres unmarked) [Example 58] | 513 nM | 57 nM
37 | CC(=C1CNC1)c1cc(Cl)c2c(c1Cl)C(=O)N(Cc1c(C)cc(C)[nH]c1=O)CC2 [Example 74, 7-(1-(azetidin-3-ylidene)ethyl)-5,8-dichloro-2-((4,6-dimethyl-2-oxo-1,2-dihydropyridin-3-yl)methyl)-3,4-dihydroisoquinolin-1(2H)-one] | 51 nM | 5 nM
38 | CC(=C1CN(C(=O)CO)C1)c1cc(Cl)c2c(c1Cl)C(=O)N(Cc1c(C)cc(C)[nH]c1=O)CC2 [Example 75, 5,8-dichloro-2-[(4,6-dimethyl-2-oxo-1,2-dihydropyridin-3-yl)methyl]-7-{1-[1-(hydroxyacetyl)azetidin-3-ylidene]ethyl}-3,4-dihydroisoquinolin-1(2H)-one] | 20 nM | 2 nM
39 | CC(=O)N1CC(=C(C)c2cc(Cl)c3c(c2Cl)C(=O)N(Cc2c(C)cc(C)[nH]c2=O)CC3)C1 [Example 76] | 43 nM | 5 nM
40 | CC(=C1CN(S(C)(=O)=O)C1)c1cc(C)c2c(c1Cl)C(=O)N(Cc1c(C)cc(C)[nH]c1=O)CC2 [Example 77] | 132 nM | 22 nM
